Calls of active or inactive are those of the source. The rule behind the calls is not given here.
What was measured:
[1] = target: T1, Arginase-2, mitochondrial (Homo sapiens) (UniProt P78540); test: Irreversible inhibition of human arginase 2 assessed as inactivation rate constant using thioarginine as substrate measured up to 360 mins by UV micro plate method
T1 sequence (whole entry): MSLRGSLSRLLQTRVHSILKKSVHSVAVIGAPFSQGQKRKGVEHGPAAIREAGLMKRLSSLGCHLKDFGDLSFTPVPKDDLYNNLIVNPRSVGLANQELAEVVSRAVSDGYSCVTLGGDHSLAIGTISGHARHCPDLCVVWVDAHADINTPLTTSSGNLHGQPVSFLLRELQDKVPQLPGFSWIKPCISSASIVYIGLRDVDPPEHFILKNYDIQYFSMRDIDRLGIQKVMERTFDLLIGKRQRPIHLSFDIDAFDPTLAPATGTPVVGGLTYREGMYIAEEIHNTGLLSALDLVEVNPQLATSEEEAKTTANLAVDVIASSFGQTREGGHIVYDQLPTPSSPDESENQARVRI

[2] = target: T2, Arginase-1 (Homo sapiens) (UniProt P05089); test: Irreversible inhibition of human arginase 1 assessed as inactivation rate constant using thioarginine as substrate measured up to 360 mins by UV micro plate method
T2 sequence (whole entry): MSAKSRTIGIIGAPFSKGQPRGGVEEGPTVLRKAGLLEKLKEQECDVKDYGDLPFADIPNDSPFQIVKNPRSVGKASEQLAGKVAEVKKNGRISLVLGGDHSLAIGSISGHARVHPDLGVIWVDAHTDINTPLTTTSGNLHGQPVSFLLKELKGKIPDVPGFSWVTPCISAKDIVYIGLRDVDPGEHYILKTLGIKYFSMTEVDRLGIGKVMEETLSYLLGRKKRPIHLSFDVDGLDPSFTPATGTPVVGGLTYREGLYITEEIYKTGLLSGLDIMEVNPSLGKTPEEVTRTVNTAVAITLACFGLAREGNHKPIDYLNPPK

Arginase-1 = target: T3, Arginase-1 (Homo sapiens, UniProt P05089); test: Irreversible inhibition of human arginase 1 using thioarginine as substrate measured up to 360 mins by UV micro plate method
T3 sequence (P05089 whole entry): T2 sequence (whole entry)

[3] = target: T4, Arginase-2, mitochondrial (Homo sapiens, UniProt P78540); test: Irreversible inhibition of human arginase 2 using thioarginine as substrate measured up to 360 mins by UV micro plate method
T4 sequence (P78540 whole entry): T1 sequence (whole entry)

[4] = Reversible inhibition of human arginase using thioarginine as substrate measured up to 360 mins by UV micro plate method
[5] = target: T2, Arginase-1 (Homo sapiens); test: Binding affinity to human arginase 1 at Thr135 residues preincubated with compound at 500 uM followed by chymotrypsin addition measured after 16 hrs by tandem mass spectrometric method

Kinact [1] [min⁻¹]	Kinact [2] [min⁻¹]	Ki (Arginase-1) [µM]	Ki [3] [µM]	Ki [4] [µM]	Activity [5]	SMILES
0.033	0.032	382	437			CC(=O)OC(C(=O)O)c1ccc(NC(=N)N)cc1 (stereo not given)
				20		N[C@@H](CSCCB(O)O)C(=O)O
0.048	0.029 to 0.031	275 to 307	322		Active	N=C(N)Nc1ccc(C(F)C(=O)O)cc1 (stereo not given)
